According to the NIST ThermoML archive (doi:10.1016/j.jct.2004.04.013):
Several values for one entry are separate records, joined by “and”; a condition that tells them apart may be missing. Identical values can stand only once.

Conditions: Liquid, Pulse-echo method

c1ccccc1 [benzene]
Conditions	speed of sound
283.15 K, 101 kPa	1371.6 m/s
283.15 K, 1112 kPa	1376.8 m/s
283.15 K, 2281 kPa	1382.4 m/s
283.15 K, 4616 kPa	1393.2 m/s
283.15 K, 6766 kPa	1403.3 m/s
283.15 K, 9100 kPa	1413.6 m/s
283.15 K, 11628 kPa	1424.5 m/s
283.15 K, 14278 kPa	1436 m/s
283.15 K, 15957 kPa	1443.4 m/s
283.15 K, 18556 kPa	1454 m/s
283.15 K, 20823 kPa	1463 m/s
283.15 K, 23405 kPa	1473.4 m/s
298.15 K, 101 kPa	1299.9 m/s and 1300.2 m/s
298.15 K, 888 kPa	1305 m/s
298.15 K, 1246 kPa	1305.8 m/s
298.15 K, 2254 kPa	1311.8 m/s
298.15 K, 2506 kPa	1312.2 m/s
298.15 K, 4580 kPa	1322.5 m/s
298.15 K, 4719 kPa	1323.9 m/s
298.15 K, 6991 kPa	1334.4 m/s
298.15 K, 7131 kPa	1335.5 m/s
298.15 K, 9327 kPa	1346.2 m/s
298.15 K, 9335 kPa	1346.2 m/s
298.15 K, 9408 kPa	1346 m/s
298.15 K, 11563 kPa	1355.8 m/s
298.15 K, 11640 kPa	1357 m/s
298.15 K, 14137 kPa	1368.5 m/s
298.15 K, 14317 kPa	1368.6 m/s
298.15 K, 15927 kPa	1375.9 m/s
298.15 K, 16524 kPa	1379.1 m/s
298.15 K, 18655 kPa	1388.6 m/s
298.15 K, 18844 kPa	1389 m/s
298.15 K, 20826 kPa	1398.1 m/s
298.15 K, 21001 kPa	1398.6 m/s
298.15 K, 23151 kPa	1407.9 m/s
298.15 K, 23834 kPa	1410.7 m/s
298.15 K, 25699 kPa	1418.5 m/s
298.15 K, 26172 kPa	1420.5 m/s
298.15 K, 28369 kPa	1428.5 m/s
313.15 K, 101 kPa	1230.8 m/s
313.15 K, 2047 kPa	1241.3 m/s
313.15 K, 3268 kPa	1247.8 m/s
313.15 K, 5111 kPa	1257.8 m/s
313.15 K, 7199 kPa	1268.7 m/s
313.15 K, 9383 kPa	1280 m/s
313.15 K, 11613 kPa	1291.3 m/s
313.15 K, 14139 kPa	1303.7 m/s
313.15 K, 16386 kPa	1314.6 m/s
313.15 K, 18686 kPa	1325.5 m/s
313.15 K, 21242 kPa	1337.2 m/s
313.15 K, 23254 kPa	1346.4 m/s
313.15 K, 24384 kPa	1351.3 m/s
313.15 K, 25607 kPa	1357.2 m/s
313.15 K, 25608 kPa	1357.3 m/s
313.15 K, 28210 kPa	1368.6 m/s
333.15 K, 101 kPa	1142.4 m/s
333.15 K, 1260 kPa	1148 m/s
333.15 K, 2426 kPa	1155 m/s
333.15 K, 5026 kPa	1170.5 m/s
333.15 K, 7135 kPa	1182.9 m/s
333.15 K, 9195 kPa	1194.5 m/s
333.15 K, 11729 kPa	1208.4 m/s
333.15 K, 14011 kPa	1220.6 m/s
333.15 K, 16310 kPa	1232.7 m/s
333.15 K, 18687 kPa	1244.8 m/s
333.15 K, 20059 kPa	1251.8 m/s
333.15 K, 21112 kPa	1257.2 m/s
333.15 K, 23196 kPa	1267.4 m/s
333.15 K, 25517 kPa	1278.7 m/s
333.15 K, 28165 kPa	1287.7 m/s

ClC(Cl)(Cl)Cl [tetrachloromethane]
Conditions	speed of sound [m/s]
283.15 K, 101 kPa	969.1
283.15 K, 497 kPa	970.5
283.15 K, 1065 kPa	972.7
283.15 K, 2192 kPa	976.9
283.15 K, 2306 kPa	977.4
283.15 K, 3433 kPa	981.6
283.15 K, 5102 kPa	987.7
283.15 K, 5958 kPa	990.8
283.15 K, 7972 kPa	998
283.15 K, 8771 kPa	1000.6
283.15 K, 9833 kPa	1004.6
283.15 K, 11260 kPa	1009.5
283.15 K, 12970 kPa	1015.5
283.15 K, 13650 kPa	1017.6
283.15 K, 16043 kPa	1026
283.15 K, 19058 kPa	1035.9
283.15 K, 22343 kPa	1046.6
283.15 K, 25816 kPa	1057.5
283.15 K, 30453 kPa	1071.7
298.15 K, 101 kPa	921.1
298.15 K, 583 kPa	923.1
298.15 K, 865 kPa	924.2
298.15 K, 887 kPa	924.4
298.15 K, 1384 kPa	926.4
298.15 K, 1731 kPa	927.8
298.15 K, 1900 kPa	928.4
298.15 K, 2056 kPa	929.1
298.15 K, 2905 kPa	932.5
298.15 K, 3020 kPa	933
298.15 K, 3919 kPa	936.6
298.15 K, 4367 kPa	938.4
298.15 K, 4908 kPa	940.5
298.15 K, 5436 kPa	942.6
298.15 K, 5946 kPa	944.5
298.15 K, 6868 kPa	948
298.15 K, 7358 kPa	949.9
298.15 K, 7761 kPa	951.5
298.15 K, 8818 kPa	955.5
298.15 K, 8930 kPa	955.9
298.15 K, 9903 kPa	959.6
298.15 K, 10321 kPa	961.2
298.15 K, 11239 kPa	964.6
298.15 K, 12541 kPa	969.3
298.15 K, 13397 kPa	972.5
298.15 K, 14945 kPa	978
298.15 K, 15313 kPa	979.4
298.15 K, 17404 kPa	986.8
298.15 K, 17674 kPa	987.8
298.15 K, 20253 kPa	996.7
298.15 K, 20404 kPa	997.2
298.15 K, 22533 kPa	1004.5
298.15 K, 24855 kPa	1012.3
298.15 K, 24984 kPa	1012.8
298.15 K, 25186 kPa	1013.4
298.15 K, 27693 kPa	1021.7
298.15 K, 29953 kPa	1029
298.15 K, 30569 kPa	1030.8
313.15 K, 101 kPa	874.2
313.15 K, 108 kPa	874.2
313.15 K, 478 kPa	875.9
313.15 K, 894 kPa	877.7
313.15 K, 1827 kPa	881.9
313.15 K, 2938 kPa	886.7
313.15 K, 4119 kPa	891.6
313.15 K, 5135 kPa	896.1
313.15 K, 5591 kPa	898
313.15 K, 6975 kPa	903.6
313.15 K, 8334 kPa	909.4
313.15 K, 10049 kPa	916.2
313.15 K, 12992 kPa	927.9
313.15 K, 14421 kPa	933.4
313.15 K, 16421 kPa	941.1
313.15 K, 18812 kPa	949.9
313.15 K, 20514 kPa	956.3
313.15 K, 25209 kPa	972.9
313.15 K, 31645 kPa	994.8
333.15 K, 101 kPa	813
333.15 K, 967 kPa	817.4
333.15 K, 1691 kPa	820.9
333.15 K, 2195 kPa	823.4
333.15 K, 3177 kPa	828.1
333.15 K, 5118 kPa	837.4
333.15 K, 5595 kPa	839.5
333.15 K, 7312 kPa	847.3
333.15 K, 8236 kPa	851.5
333.15 K, 9201 kPa	855.8
333.15 K, 10593 kPa	862
333.15 K, 11851 kPa	867.4
333.15 K, 13131 kPa	872.9
333.15 K, 14740 kPa	879.6
333.15 K, 15989 kPa	884.8
333.15 K, 17758 kPa	892.1
333.15 K, 19476 kPa	898.9
333.15 K, 20905 kPa	904.6
333.15 K, 22422 kPa	910.5
333.15 K, 25433 kPa	922
333.15 K, 27880 kPa	931.1
333.15 K, 31372 kPa	943.7
